Counter-ions that a name gives are not always drawn. Like-named read-outs stand apart in the source and are kept apart here.

In experiment [1] the test system is S. aureus biofilm. Put plainly: S. aureus biofilm inhibition, optical density, test/control. Format: cell-based, Staphylococcus aureus. Particulars: Staphylococcus aureus, growth of biofilm test/control by optical density.
Experiment [2] concerns S. aureus. Put plainly: S. aureus growth inhibition, optical density, test/control. Format: cell-based, Staphylococcus aureus. Particulars: Staphylococcus aureus, growth of bacteria test/control by optical density.
Setting [3] is: 5 μM, read-out: S. aureus Biofilm Inhibition 5 μM vs. (−) Control.
Where [4] appears, read: 50 μM, read-out: S. aureus Biofilm Inhibition 50 μM vs. (−) Control.

Take `COCCSc1nc(OCC(=O)c2ccc(F)c(F)c2)c2c(n1)-c1ccccc1CC2(C)C` [CCG-204040, 1-(3,4-Difluorophenyl)-2-((2-((2-methoxyethyl)thio)-5,5-dimethyl-5,6-dihydrobenzo[h]-quinazolin-4-yl)oxy)ethanone]: the activity at 100 µM in experiment [1] was determined as 65.9%; in experiment [2] it was 119%. For `CCSc1nc2c(c(=O)n1CCOC)C(C)(C)Cc1ccccc1-2` [CCG-203802, 2-(ethylthio)-3-(2-methoxyethyl)-5,5-dimethyl-5,6-dihydrobenzo[h]quinazolin-4(3H)-one], in that order: 55.7% and 67.7%. `CCSc1nc(OC)c2c(n1)-c1cc(OC)ccc1CC2(C)C` [CCG-211793, 2-(ethylthio)-4,9-dimethoxy-5,5-dimethyl-5,6-dihydrobenzo[h]quinazoline]: in experiment [1] (setting [3]), the activity at 5 µM is 122%. In addition, the activity at 50 µM in experiment [1] (setting [4]) was found to be 72.2%. As for `C=CCn1c(SCCOC)nc2c(c1=O)C1(CCNC1)Cc1cc(OC)ccc1-2` (stereo not shown) [CCG-208865, 3-allyl-8-methoxy-2-((2-methoxyethyl)thio)-3H-spiro[benzo[h]quinazoline-5,3′-pyrrolidine]-4(6H)-one hydrochloride], in experiment [1] (read-out: S. aureus Biofilm Inhibition 5 μM vs. (−) Control, 5 μM), the activity at 5 µM was determined as 80.3%. In experiment [1] (read-out: S. aureus Biofilm Inhibition 50 μM vs. (−) Control, 50 μM), the activity at 50 µM worked out at 65.2%. Turning to `C=CCn1c(SCC)nc2c(c1=O)C(C)(C)Cc1cc(OCCN3C(=O)c4ccccc4C3=O)ccc1-2` [CCG-206176, 2-(2-((3-allyl-2-(ethylthio)-5,5-dimethyl-4-oxo-3,4,5,6-tetrahydrobenzo[h]quinazolin-8-yl)oxy)ethyl)isoindoline-1,3-dione], the results for the activity at 100 µM in experiment [1] and in experiment [2] were 79.5% and 100%, respectively. Regarding `C=CCn1c(SCC)nc2c(c1=O)C(C)(C)Cc1cc(OCC(=O)O)ccc1-2` [CCG-205434], in experiment [1], the activity at 100 µM came to 32.5%. Take `C=CCn1c([S+]([O-])CC)nc2c(c1=O)C(C)(C)Cc1ccc(OC)cc1-2` (stereo not shown) [CCG-206355]: the activity at 100 µM was determined as 74.7% in experiment [1] and 96% in experiment [2]. The matching figures for `C=CCn1c(SC)nc2c(c1=O)C1(CCCCC1)Cc1ccccc1-2` [CCG-102620]: 76.5% and 95.3%. For `C=CCn1c(OCC)nc2c(c1=O)C1(CCCCC1)Cc1ccccc1-2` [CCG-102622], in that order: 68.6% and 77.7%.

Regarding `C=CCn1c(SCC)nc2c(c1=O)C(C)(C)Cc1c(OC)cccc1-2` [CCG-203629], the results for the activity at 100 µM in experiment [1] and in experiment [2] were 35.1% and 66.7%, respectively. For `COCCOc1nc(SCCOC)nc(-c2ccccc2)c1C` [CCG-205361, 4-(2-Methoxyethoxy)-2-((2-methoxyethyl)thio)-5-methyl-6-phenylpyrimidine], in that order: 67.7% and 89%.

For `C=CCOc1nc(SCC#N)nc2c1C(C)(C)Cc1ccc(OC)cc1-2` [CCG-212010, 2-((4-(allyloxy)-9-methoxy-5,5-dimethyl-5,6-dihydrobenzo[h]quinazolin-2-yl)thio)acetonitrile], in experiment [1] (setting [3]), the activity at 5 µM worked out at 55%. The activity at 50 µM in experiment [1] (setting [4]) came out at 35%. In the case of `C=CCn1c(SCC)nc2c(c1=O)C(C)(C)Cc1c(O)cccc1-2` [CCG-203631], the activity at 100 µM in experiment [1] came out at 31.1%; in experiment [2], 76.7%.

Take `C=CCn1c(SCCO)nc2c(c1=O)C(C)(C)Cc1ccccc1-2` [CCG-203041]: the activity at 100 µM in experiment [1] worked out at 47.7%; in experiment [2], 89.7%. On to `C=CCn1c(SCCOC)nc2c(c1=O)C1(CCN(C(=O)c3ccccc3)CC1)Cc1ccccc1-2` [CCG-206231, 3-Allyl-1′-benzoyl-2-((2-methoxyethyl)thio)-3H-spiro[benzo[h]quinazoline-5,4′-piperidin]-4(6H)-one], for which the activity at 10 µM in experiment [1] turned out to be 52.5%. For the same molecule, the activity at 100 µM is 53% in experiment [1] and 111% in experiment [2].

As for `C=CCn1c(SCCN(C)C)nc2c(c1=O)C1(CCCCC1)Cc1ccccc1-2` [CCG-102495], the activity at 100 µM in experiment [1] worked out at 78.9%; in experiment [2], 93%. For the molecule `C=CCn1c(SCCOC)nc2c(c1=O)C1(CCN(C(=O)OC(C)(C)C)C1)Cc1cc(OC)ccc1-2` (stereo not shown) [CCG-208864, tert-butyl 3-allyl-8-methoxy-2-((2-methoxyethyl)thio)-4-oxo-4,6-dihydro-3H-spiro[benzo[h]quinazoline-5,3′-pyrrolidine]-1′-carboxylate], in experiment [1] (setting [3]), the activity at 5 µM was determined as 49.5%. In addition, in experiment [1] (setting [4]), the activity at 50 µM turned out to be 49.1%. Turning to `COCCSc1nc2c(c(=O)n1CCOc1ccc(OC)cc1)C(C)(C)Cc1ccccc1-2` [CCG-204060], the activity at 100 µM in experiment [1] came to 79%; in experiment [2] it was 91.2%. With `C=CCn1c(SCCOC)nc2c(c1=O)C1(CCN(C(=O)OCC)CC1)Cc1ccccc1-2` [CCG-206233, Ethyl 3-allyl-2-((2-methoxyethyl)thio)-4-oxo-4,6-dihydro-3H-spiro[benzo[h]quinazoline-5,4′-piperidine]-1′-carboxylate], in experiment [1] (setting [4]), the activity at 50 µM is 59.4%.

With `COc1ccc2c(c1)CC1(CCN(C(=O)OC(C)(C)C)CC1)c1c(OC)nc(SCC#N)nc1-2` [CCG-211810, tert-butyl 2-((cyanomethyl)thio)-4,8-dimethoxy-6H-spiro[benzo[h]quinazoline-5,4′-piperidine]-1′-carboxylate], the activity at 5 µM in experiment [1] (setting [3]) came to 68.2%. Further, in experiment [1] (setting [4]), the activity at 50 µM turned out to be 75%. Take `COCCSc1nc(OCCOc2ccc(F)cc2)c2c(n1)-c1ccccc1CC2(C)C` [CCG-204028, 4-(2-(4-Fluorophenoxy)ethoxy)-2-((2-methoxyethyl)thio)-5,5-dimethyl-5,6-dihydrobenzo[h]-quinazoline]: the values for the activity at 100 µM in experiment [1] and in experiment [2] were 70% and 113%, respectively.

As to `COCCSc1nc(OCc2ccc(OC)cc2)c2c(n1)-c1ccccc1CC2(C)C` [CCG-204037, 4-((4-Methoxybenzyl)oxy)-2-((2-methoxyethyl)thio)-5,5-dimethyl-5,6-dihydrobenzo[h]-quinazoline], the activity at 100 µM came to 65.7% in experiment [1] and 110% in experiment [2].

For the molecule `C=CCn1c(SCC)nc2c(c1=O)C(C)(C)Cc1c(OCCOC)cccc1-2` [CCG-203633], the activity at 100 µM in experiment [1] turned out to be 54%; in experiment [2], 76.2%. On to `C=CCn1c(SCCOC)nc2c(c1=O)C1(CCN(C=O)CC1)Cc1ccccc1-2` [CCG-206234, 3-Allyl-2-((2-methoxyethyl)thio)-4-oxo-4,6-dihydro-3H-spiro[benzo[h]quinazoline-5,4′-piperidine]-1′-carbaldehyde], for which, in experiment [1], the activity at 10 µM came out at 101% and the activity at 100 µM was determined as 65%. For the same molecule, the activity at 100 µM in experiment [2] was found to be 99%. `COCCSc1nc2c(c(=O)n1CCCC#N)C(C)(C)Cc1ccccc1-2` [CCG-204031, 4-(2-((2-Methoxyethyl)thio)-5,5-dimethyl-4-oxo-5,6-dihydrobenzo[h]quinazolin-3(4H)-yl)butanenitrile]: the activity at 100 µM amounted to 59.2% in experiment [1] and 98.5% in experiment [2]. As for `C=CCOc1nc(SCCOC)nc2c1C1(CCN(C(=O)CCCC)CC1)Cc1cc(OC)ccc1-2` [CCG-208863, 1-(4-(allyloxy)-8-methoxy-2-((2-methoxyethyl)thio)-6H-spiro[benzo[h]quinazoline-5,4′-piperidin]-1′-yl)pentan-1-one], the activity at 5 µM in experiment [1] (setting [3]) was 72.1%. Moreover, in experiment [1] (setting [4]), the activity at 50 µM was 68.6%.

Take `COc1ccc2c(c1)CC1(CCN(C(=O)OC(C)(C)C)CC1)c1c(OCC#N)nc(SCC#N)nc1-2` [CCG-211812, tert-butyl 4-(cyanomethoxy)-2-((cyanomethyl)thio)-8-methoxy-6H-spiro[benzo[h]quinazoline-5,4′-piperidine]-1′-carboxylate]: in experiment [1] (setting [3]), the activity at 5 µM stood at 75.2%. Besides, the activity at 50 µM in experiment [1] (setting [4]) worked out at 75%. `C=CCn1c(SCCOC)nc2c(c1=O)C1(CCN(C)CC1)Cc1cc(OC)ccc1-2` [CCG-208981, 3-allyl-8-methoxy-2-((2-methoxyethyl)thio)-1′-methyl-3H-spiro[benzo[h]quinazoline-5,4′-piperidin]-4(6H)-one]: the activity at 5 µM in experiment [1] (setting [3]) was 88.5%. Besides, the activity at 50 µM in experiment [1] (setting [4]) was found to be 70.6%.

`COc1ccc2c(c1)-c1nc(SCC#N)n(CC#N)c(=O)c1C(C)(C)C2` [CCG-212012, 2-((3-(cyanomethyl)-9-methoxy-5,5-dimethyl-4-oxo-3,4,5,6-tetrahydrobenzo[h]quinazolin-2-yl)thio)acetonitrile]: in experiment [1] (setting [3]), the activity at 5 µM was 55%. Moreover, the activity at 50 µM in experiment [1] (setting [4]) came out at 27%. Take `C=CCn1c(SCCOC)nc2c(c1=O)C1(CCN(C(=O)NCC(=O)OCC)CC1)Cc1cc(OC)ccc1-2` [CCG-211972, ethyl (3-allyl-8-methoxy-2-((2-methoxyethyl)thio)-4-oxo-4,6-dihydro-3H-spiro[benzo[h]quinazoline-5,4′-piperidine]-1′-carbonyl)glycinate]: the activity at 5 µM in experiment [1] (setting [3]) came to 125%. The activity at 50 µM in experiment [1] (setting [4]) came out at 68%.

Take `C=CCOc1nc(SCC)nc2c1C(C)(C)Cc1ccc(OC)cc1-2` [CCG-206358]: in experiment [1], the activity at 10 µM turned out to be 55.7% and the activity at 100 µM is 70%.

As to `COc1ccc2c(c1)CC1(CCN(C(=O)OC(C)(C)C)CC1)c1c-2nc(SCC#N)n(C)c1=O` [CCG-211811, tert-butyl 2-((cyanomethyl)thio)-8-methoxy-3-methyl-4-oxo-4,6-dihydro-3H-spiro[benzo[h]quinazoline-5,4′-piperidine]-1′-carboxylate], the activity at 5 µM in experiment [1] (setting [3]) is 67.8%. The activity at 50 µM in experiment [1] (setting [4]) was 70.2%.

For `COc1ccc2c(c1)-c1nc(SCC#N)nc(OCC#N)c1C(C)(C)C2` [CCG-212011, 2-((4-(cyanomethoxy)-9-methoxy-5,5-dimethyl-5,6-dihydrobenzo[h]quinazolin-2-yl)thio)acetonitrile], in experiment [1] (setting [3]), the activity at 5 µM worked out at 48%. The activity at 50 µM in experiment [1] (setting [4]) was determined as 29%.

For the molecule `C=CCn1c(SCC)nc2c(c1=O)C(C)(C)Cc1ccc(OC)cc1-2` [CCG-203625], the activity at 10 µM in experiment [1] came out at 51.3%.

(Values after patent US10441588B2, “Methods and compositions for treating bacterial infection” (Curators of the University of Missouri, priority 2012, dated 2019).)
